US20190125753A1, “COMPOUNDS AND METHODS FOR INCREASING HEMATOPOIESIS” (University of Southern California, priority 2016, published 2019)

Columns and labels:
[1] = system: long-term repopulating HSC; experiment: HSC differentiation assay (LTR-HSC from treated mice co-cultured with GFP bone marrow cells); format: in vivo, mouse; details: 2 mg/kg, 24 hours, then 2.5-3 days co-culture
Protocol: DMSO or YH250 (2 mg/kg) were administrated to female C57/BL mice. (Mice were purchased from JAX stock#000664 for CD45.2 or Stock#002014 for CD45.1). 24 hours later, long-term repopulating HSC (LTR-HSC, Lin-negt/Sca-1-posit/c-kit-posit/CD34negt/CD135negt/CD48negt/CD150posit cells were purified with fluorescent flow cytometry sorting (FACS). Then, the purified cells were co-cultured with whole bone marrow cells isolated from GFP-transgenic mice (C57BL/6Tg-UBC-GFP, JAX stock#004353), which serves as supporting system in stem cell medium (Stemspan, Stemcell Technologies, Cat#9650) supplemented with SCF (stem cell factor 10 ng/ml) and TPO (thrombopoietin, 10 ng/ml). 2.5-3 days after co-culture, cells were harvested and analyzed for surface markers of CD48 and CD202b (Tie-2) (FIG. 7A).

bone marrow cells = experiment: Brief (4 h) incubation of bone marrow cells, 14 days culture, FACS; format: cell-based, mouse
Protocol: Bone marrow cells were treated with DMSO or YH250 (0.5 μM) for 4 hours, then the compound was removed and the cells cultured in QBSF-58 medium for 14 days with 10 ng/ml of SCF, TPO, Flt3 ligand, and IL-6. At the end of culture, cells were recovered and analyzed for LSK cells with FACS.
In a further study, female CD45.1 mice bone marrow cells were incubated with DMSO, or YH249 (0.5 μM) or YH250 (0.5 μM) for 4 hrs in QBSF-58 media, then 2×10^4 cells were plated in QBSF-58 medium containing SCF, TPO, Flt3 and IL-6 (10 ng/ml for each) for 14 days. Cells were then recovered from plate for FACS analysis. […] Correspondingly, there are higher LSK cells (52%, 60% and 70% respectively for DMSO, YH249 and YH250). From every 10,000 analyzed cells, LSKCD34negt cell numbers are 437, 663 and 2051 for DMSO, YH249 and YH250 treated cells, respectively.

5-FU treated mice = experiment: Recovery from repeated 5-FU administration; format: in vivo, mouse
Protocol: To test if p300/-catenin antagonists can also promote multi-dosing chemotherapeutic drug induced bone marrow inhibition, 4 rounds of 5-FU (two doses in each round) administration were given to CD45.2 female mice. 150 mg/kg of 5-FU was given to mice for the first three rounds and then 200 mg/kg for the last round (4th round). The second dose of 5-FU was 6 days apart from the first dose of 5-FU in each round. Either DMSO or YH250 (2 mg/kg) were given to animals 24 hours after the first dose of 5-FU in each round of 5-FU administration (FIG. 25A). Animal body weight, survival rate and blood count changes were monitored. […] After each round of 5-FU administration, animals were allowed to recover to normal blood count before next round of 5-FU administration. FIG. 25E depicts the blood count at nadir points after each round of 5-FU administration.

bone marrow HSC = experiment: Competitive repopulation assay after multi-dose 5-FU; format: in vivo, mouse; details: multi-dose YH250 with 5-FU
Description: At the last round of 5-FU treatment from FIG. 25A, bone marrow cells from survived animals were isolated (CD45.2) and mixed with competitor cells (CD45.1/CD45.2 hybrid) and injected to CD45.1 mice for competitive repopulation assay. This is to assess whether YH250, by multiple uses in this experiment setting, will result in changes of HSC activity and lead to HSC exhaustion (FIG. 26A).

R1 mESCs = experiment: Maintenance of mouse ES cell pluripotency, feeder free, 5 days; format: cell-based
Protocol: We also determined that IQ-1 indirectly, via binding to the PR72/130 subunit of PP2A, inhibited the p300/β-catenin interaction (Id). Therefore, we anticipated that YH249/250 should also maintain mESC pluripotency in a Wnt dependent manner. To test his, R1 mESCs were cultured under feeder free conditions in the presence or absence of YH249/250 for 5 days. […] Pluripotency markers, Oct4, Nanog, Sox2, SSEA-1 and ALP, were all expressed in the cells treated with Wnt3a and YH250 (FIG. 28b). Moreover, Wnt3a could be replaced with the selective GSK-3 inhibitor CHIR99021, which activates the Wnt signaling pathway (FIG. 28a, lower panel). […] In the event, similarly to ID-8, the combination of Wnt3a and YH249/250 provided morphologically undifferentiated colonies of H9 human embryonic stem cells (hESCs) without FGF and TGF (FIG. 28c). hPSC markers were detected by ALP staining and immunofluorescence (FIG. 28d). In addition to H9 cells, two other hESC lines and a human induced pluripotent stem (iPS) cell line could be also maintained undifferentiated morphology utilizing the same conditions (not shown).
Specifically, FIG. 28A-28D, show maintenance of ESC's pluripotency by YH249 and YH250. […] 28A, Typical colony morphologies of RI mouse ES cells cultured 5 days in [upper panel] 3 μM CHIR99021 and 1 μM PD0325901 (2i) medium, basal medium (2i medium without CHIR99021 and PD0325901), basal medium supplemented with 50 ng/ml Wnt3a alone, [middle panel] combination of 50 ng/ml Wnt3a and 2 μM IQ-1, 500 nM YH249 or 200 nM YH250, [lower panel] 3 μM of CHIR99021 alone, and combination of 3 μM CHIR99021 and 500 nM YH249 or 200 nM YH250. […] The blue signal (Wnt3a panels) represents DAPI nuclear staining. Bars indicate […]. […] The blue signal (Wnt3a panels) represents DAP1 nuclear staining. Scale bars indicate 100 am.

[2] = 0.5 μM 4 hours, 14 days in QBSF-58 with SCF, TPO, Flt3 ligand, IL-6
[3] = especially last three rounds of 5-FU

COc1cccc(CNC(=O)N2C3CN(Cc4cc(Cl)cc(Cl)c4N(C)C)C(=O)[C@H](Cc4ccc(O)cc4)N3C(=O)CN2C)c1OC (stereo partly drawn) [YH250]
CD48posit cells vs DMSO ([1]; p=0.010): significantly less | non-differentiated CD48negt/CD202bposit cells vs DMSO ([1]; p=0.04): significantly more | percentage of LSK cells vs DMSO (bone marrow cells; [2]): significantly higher | percentage of Lineage negative cells vs DMSO (bone marrow cells; [2]): significantly higher | lineage negative cell (bone marrow cells; 0.5 μM 4 hrs, 14 days culture, DMSO 9%): 33% | LSK cells (bone marrow cells; 0.5 μM 4 hrs, 14 days culture, DMSO 52%): 70% | LSKCD34negt cell numbers (bone marrow cells; from every 10,000 analyzed cells, 0.5 μM 4 hrs, 14 days culture, DMSO 437): 2051 | RBC at nadir points (5-FU treated mice; 4 rounds of 5-FU): no significant effect on RBC | survival (5-FU treated mice; 5-FU 200 mg/kg (4th round), 60% died in DMSO group, p=0.04): all animals survived | WBC at nadir point (5-FU treated mice; [3]): significantly higher | platelet at nadir point (5-FU treated mice; [3]): significantly higher | body weight (5-FU treated mice; from second round of 5-FU administration, 2 mg/kg each round): less weight drop | lineage bias in short-term and long-term repopulation (bone marrow HSC): no lineage bias | pluripotency markers Oct4, Nanog, Sox2, SSEA-1 and ALP (R1 mESCs; Wnt3a and 200 nM YH250): all expressed | mESC pluripotency (R1 mESCs; with 50 ng/ml Wnt3a or 3 μM CHIR99021, 500 nM YH249 or 200 nM YH250, 5 days): maintain pluripotency
